In patent US20250381269A1, “BISPECIFIC ANTIBODY BINDING EGFR AND B7-H3” (FORTVITA BIOLOGICS (SINGAPORE) PTE. LTD., priority 2022, published 2025) one finds EC50 data, which are given here for one substance.

This experiment relates to H1703. Type of experiment: cell-based, human. The following applies: EGFR Amplification, KRAS WT, huPBMC:target 50:1, 8 h, LDH. The protocol:
• (1) A CTS medium (Gibco, A3021002) was preheated at 37° C. huPBMC (Miaotong Biotechnology, PB 100C-W) was quickly thawed in a water bath, and then the cells were added slowly to 8 mL of CTS medium (containing 1% DNase). • (2) The mixture was centrifuged at 300 g for 8 min. The supernatant was removed, and the cells were resuspended in 30 mL of CTS (containing 10 μL of DNase), transferred to a T75 flask, and incubated in an incubator at 37° C. overnight. • (3) The suspension cells cultured overnight were taken and centrifuged at 300 g for 8 min. The supernatant was removed, and the cell density was adjusted with CTS. According to an effector/target ratio of effector cells (huPBMCs) to target cells (tumor cells in Table 5) of 50:1, huPBMCs and the tumor cells prepared in advance (Target: huPBMC=1.5E4/7.5E5 cells/well/100 μL) were plated in a 96-well low-adsorption plate (Corning. CLS7007-24EA). • (4) The diluted antibody drug was added to the corresponding cell well plate and cultured at 37° C. with 5% CO2 for 8 h. • (5) The mixture was centrifuged at 300 g for 5 min. 50 μL of the supernatant was transferred to a 96-well transparent flat-bottom plate ((NUNC, 136101), 50 μL of the LDH reagent (Promega, G1780) prepared in advance was added to the corresponding well plate, and the plate was left to stand at room temperature for 15-30 min in the dark. • (6) 50 μL LDH stop solution (Promega, G1780) was taken and detected by a multimode microplate reader (Molecular Devices, Spectra MAXi3) at 490 nm for readings.

A word on the EC50: it is the midpoint of the concentration-response curve. A high value points to lower potency in that assay. For the substance zalutumumab [Zalu mAb], the EC50 was 7 pM. This counts as picomolar.
